Source: patent US20200199530A1, “METHODS OF DIFFERENTIATING STEM CELL-DERIVED ECTODERMAL LINEAGE PRECURSORS” (MEMORIAL SLOAN-KETTERING CANCER CENTER, priority 2017, published 2020)

Assays:
hPSCs = experiment: Tolerability of small molecules during E6-based differentiation; assay type: cell-based, human; details: had to be re-titrated
rodent GSK3β homologs = details: cited from earlier work
[1] = test system: SIX1 placode cells (PAX3 expression); experiment: Trigeminal placode induction by CHIR99021 pulse; assay type: cell-based, human; details: additional pulse after the placode-inducing BMP pulse
Procedure: (§1) All differentiations starting from E8 were dissociated into single cells using EDTA and re-plated at high density in E8 with the ROCK inhibitor (Tocris). Cells were typically seeded at a density of 200,000 cells/cm^2 on Matrigel coated dishes. Switching from E8 to E6 triggered differentiations (i.e. d0). Neuroectoderm (NE) formation was generated by culturing the cells in E6 with 10 μM SB and 500 nM LDN until d12. Neural Crest (NC) was first treated with 10 μM SB, 600 nM CHIR and 1 ng/ml BMP4 from d0-d2. At d3, cells were maintained in 10 μM SB with 1.5 uM CHIR until d12. Lens placode was first treated with 10 μM SB and 5 ng/ml BMP4 from d0-d2. At d3, cells were maintained in 10 μM SB with 50 ng/ml FGF2 until d12. Trigeminal placode was first treated with 10 μM SB and 5 ng/ml BMP4 from d0-d2. At d2, 600 nm CHIR was added. At d3, cells were treated with 10 μM SB and 600 nM CHIR. From d4-d12, cells were treated with 10 μM SB. Finally, non-neural ectoderm (NNE) was treated with 10 μM SB, 10 μM SU5402 and 10 ng/ml BMP4 from d0-d1, and then treated with 10 μM SB and 5 ng/ml BMP4 from d2-d12.
Trigeminal Placode differentiation. Day 0 (0-24 hrs): Add E6 media containing 5 ng/ml BMP4+10 μM SB to cells.
Day 1 (24-48 hrs): Change media with E6 media containing 5 ng/ml BMP4+10 μM SB to cells.
Day 2 (48-72 hrs): Change media with E6 media containing 5 ng/ml BMP4+10 μM SB+600 nM CHIR to cells. […]

[2] = test system: hPSC differentiated towards pituitary placode; experiment: Pituitary placode induction from hPSC; assay type: cell-based, human; details: 1 μM, with FGF8 and FGF10, day 15
Procedure: For pituitary differentiation cells were plated at 250 000 cells/cm^2 on VTN-N coated dishes (differentiation works best in 24 well plates) in E8+10 μM Y-27632. After 24 h (day0) medium was changed to E6 supplemented with 10 μM SB431542 and 5 ng/ml BMP4 (R&D Systems). Medium was changed every day. On day 3 BMP4 was removed from the medium and cells were cultured for 1 day in E6+10 μM SB431542. For the standard differentiation conditions, on day 4 E6 was supplemented with 10 μM SB431542, 200 ng/ml SHH (R&D Systems, C25II), 100 ng/ml FGF8b (R&D Systems) and 50 ng/ml FGF10 (Peprotech Inc.). For some experiments SHH was replaced by 1 μM purmorphamine (Stemgent) or 1 μM SAG (Stemcell Technologies). From now on medium volume was doubled and cells were feed every other day until day 15. […] Purified cells were then plated as droplets (50 000 cells/10 μl drop) in E6 supplemented with 10 μM Y-27632, 200 ng/ml SHH, 100 ng/ml FGF8b and 50 ng/ml FGF10 on polyornithine/laminin/fibronectin-coated plates. After 24 h medium was changed to E6 containing SHH, FGF8 and FGF10 until day 30. Medium was changed every other day. […] For quantitative RT PCR the present example used the SSoFast EvaGreen Mix (BioRad) in combination with QuantiTect primer assays (Qiagen) on a BioRad CFX96 Thermal Cycler. […] Results are calculated using the ΔΔCt method (Livak and Schmittgen, 2001).

[3] = test system: human pluripotent stem cells (PAX6::H2B-GFP reporter); experiment: Neuroectoderm induction in E6 media, PAX6 positive cells; assay type: cell-based; details: day 12 post induction, no small molecules ~40%
Procedure: as §1
Neuroectoderm differentiation. Day 0 (0-24 hrs): Add E6 media containing 500 nM LDN+10 μM SB to cells. To skew the differentiation more toward an anterior neuroectoderm, add E6 media containing 500 nM LDN+10 μM SB+5 μM XAV to cells. […]

Cc1c[nH]c(-c2cnc(NCCNc3ccc(C#N)cn3)nc2-c2ccc(Cl)cc2Cl)n1 [CHIR99021, 6-(2-(4-(2,4-dichlorophenyl)-5-(4-methyl-1H-imidazol-2-yl)pyrimidin-2-ylamino)ethylamino)nicotinonitrile]
cell killing at the original (KSR protocol) concentration (hPSCs): effectively killed the cells
IC50 values against rodent GSK3β homologs (rodent GSK3β homologs): nanomolar
PAX3 expression in placode cells [1]: capable of triggering PAX3+ and PAX6− expression

CNC1CCC(N(Cc2cccc(-c3ccncc3)c2)C(=O)c2sc3ccccc3c2Cl)CC1 (stereo not drawn) [SAG]
replacement of recombinant SHH in pituitary induction [2]: can be replaced

NC(=O)c1ccc(-c2nc(-c3ccc4c(c3)OCO4)c(-c3ccccn3)[nH]2)cc1 [SB431542, 4-[4-(1,3-benzodioxol-5-yl)-5-(2-pyridinyl)-1H-imidazol-2-yl]-benzamide]
percentage of cells expressing PAX6 [3]: ~90%

c1ccc2c(Oc3nc(Nc4ccc(N5CCOCC5)cc4)c4ncn(C5CCCCC5)c4n3)cccc2c1 [purmorphamine]
replacement of recombinant SHH in pituitary induction [2]: can be replaced
